Reference: patent US20240101972A1, “METHODS OF […]-[…] PRODUCTION” (priority 2021, published 2024)
Read-outs that look alike come from different tables or passages of the source.

Tests used:
[1] = system: Rep with C-terminal degron under the control of TRE3G promoter; experiment: AAV titer (qPCR) of Rep with C-terminal degron under TRE3G promoter control; format: cell-based
Procedure: (§1) PEI pro transfection reagent (Polyplus), OptiMEM (Gibco) were used. […] These cell pellets were kept at −80 freezer.
(§2) Frozen harvested cells were thawed and sonicated. […] Then DNaseI treatment was performed for 15 minutes.
(§3) In this study a Tet response element containing promoter (TRE3G) is cloned in front of the Rep gene as shown at FIG. 18A. This promoter can be activated in the presence of Tet proteins and doxycycline induction. Rep with C-terminal Degron under Tet Response Element promoter control is shown to be functional for AAV production regulation. Large Rep is under the control of Tet promoter and small Rep expression is provided by p19 promoter (Samples 1-5). […] Shield1 can upregulate small Rep expression (Sample 1 vs Sample 2) and large Rep expression (Sample 3 vs Sample 4). A separate plasmid is used for supplying Tet-On 3G transactivator protein where transactivator protein expression is under the control of ubiquitous CMV promoter (Samples 1-4). The amino acid sequence of the transactivator protein is: […]

[2] = system: FKBP degron tagged Rep proteins; experiment: AAV titer (qPCR) with FKBP degron tagged Rep; format: cell-based, human
Procedure: as §1, §2
(§4) As depicted in FIGS. 12A-12D “RHM4-1” and “RHM4-1v2” are the plasmids that express both Rep proteins with no degrons and RHM4-1 Cap. In contrast, “p40Cap plasmid” only expresses RHM4-1 Capsid, while “pAAV2 Rep plasmid” expresses Rep proteins from AAV2. The ITR plasmid used in these studies has Gaussia Luciferase as transgene.

[3] = system: FKBP degron tagged Rep proteins; experiment: Western blot of FKBP degron tagged Rep proteins; format: cell-based, human
Procedure: as §1
(§5) Protein concentrations were measured with BCA kit (Pierce). […] Membranes were scanned with Odyssey (Li-Cor).
as §4

[4] = biological target: T1, Rep with C-terminal degron under the control of TRE3G promoter (Homo sapiens, UniProt P62942, F37V); experiment: Western blot of Rep with C-terminal degron under TRE3G promoter control; format: cell-based
T1 construct: AAV Rep protein (fusion partner); expressed in transfected cells; host or cells: Expi293
Procedure: as §1, §5, §3

[5] = system: Rep with C-terminal FKBP degron; experiment: rAAV production from Rep-degron constructs, read out by Huh7 transduction and luciferase; format: cell-based, human
Source text: Various constructs were designed for the development of mechanism for controllable Rep accumulation and higher rAAV production. Rep transgene was tagged at N-terminus or C-terminus with a destabilization domain (degron) to confer instability and target the translated Rep protein product to proteasome for degradation. The Rep protein degradation can be reversed by addition of the Shield1 ligand. The degron was modified from a human gene encoding FK506-binding protein 12 (“FKBP12”). It was previously shown that F36V modifications of the protein improves its specificity to Shield1 over FK506 (Clackson et al, PNAS 1998). […] The amino acid sequence of the degron that was used in the present example, referred to herein as “FKBP”, having a F36V and an L107P mutation, was:
Production of rAAV: Recombinant AAV were produced by transfection of human embryonic kidney (HEK293) cells grown in 6-well plates. The cells at 70-90% confluency were transfected with 3 μg of total DNA using jetOPTIMUS® DNA (PolyPlus)transfection reagent. The positive control rAAV produced with LK03 Rep/Cap plasmid were produced via triple transfection method. The plasmids were added in 1:1:1 ratio (1 helper: 1 ITR plasmid: 1 rep/cap plasmids). […]
Transduction of cells: Huh7 cells were transduced with equivalent volume of cell lysate or the cell media containing the AAV vectors. […] Transduction efficiency was assessed in biological duplicates or triplicates. Culture media was replaced the following day, and samples were analyzed for transgene expression 48-72 hours after transduction. For detection of Luciferase expression, Huh7 cells were lysed in passive lysis buffer (Promega) and each biological sample was divided and plated to four wells of 96-well luminescence assay plate. Renilla Luciferase levels were determined using the Renilla Luciferase Assay Kit (Promega) and analyzed in a microplate luminometer (Spectramax) fitted with injectors.
Shield1 was added to selected wells (FIG. 2). […] The Huh7 cells were then lysed and luciferase activity was measured for the detection of transgene activity.

[6] = system: ecDHFR degron tagged Rep proteins
Procedure: Expi293 cells were seeded 1.4E6 viable cells/mL in Expi293 media the day before transfection. Transfection was performed when the viable cells were between 2E6-3E6 cells/mL. PEI pro transfection reagent (Polyplus), OptiMEM (Gibco) were used. PEI:DNA ratio was 2 and 0.6 μg DNA per million cells was used. Triple transfections were performed with RHM4-1 Rep Cap, Helper and Gaussia luciferase plasmids. Split Rep and Cap plasmids were used in a ratio of 1:4 (Rep:Cap). In some cases split Rep Cap plasmids and TIR1 or CMV-Tet were used in a ratio of 1:3:1 (Rep:Cap:TIR1 or CMV-Tet). 1.5 mM SAHA was added after the addition of DNA-PEI complexes. In some cases next day Shield1 or TMP or Auxin and/or Doxycycline was added. For Doxycycline treated samples another treatment of Dox was performed 24 hr later than first treatment. Cells harvested at 4,8,24 hr post-treatment and 44 hr or 68 hr or 72 hr post-transfection; centrifuged and washed with cold PBS. These cell pellets were kept at −80 freezer.
Cell pellets were lysed with RIPA buffer (Pierce) including protease and phosphatase inhibitors and EDTA on ice for 30 minutes. Lysates were centrifuged max speed for 15 minutes and supernatant was transferred to a new Eppendorf tube and used for Western. Protein concentrations were measured with BCA kit (Pierce). 30 lag protein per lane loaded for SDS-PAGE gels. These gels were transferred to either PVDF or Nitrocellulose membrane. Membranes were blocked with blocking buffer (Li-Cor) for 30 minutes at room temperature. Anti-AAV Rep clone 303.9 (ARP, cat #03-61069) purified mouse monoclonal antibody was diluted 500 times in either blocking buffer (Li-Cor) or antibody diluent (Li-Cor). Membranes were incubated overnight in cold room either rocking or non-rocking. Next day membranes were washed 3 times 10 minutes each with 1×TBST buffer (Invitrogen). Goat anti-mouse Alexa Flour 680 secondary antibody was diluted 1000 times in either blocking buffer (Li-Cor) or antibody diluent (Li-Cor). Membranes were incubated at room temperature rocking for 45 minutes. […]

[7] = system: ecDHFR degron tagged Rep proteins; remark: listed apart in the source
Procedure: Expi293 cells were seeded 1.4E6 viable cells/mL in Expi293 media the day before transfection. Transfection was performed when the viable cells were between 2E6-3E6 cells/mL. PEI pro transfection reagent (Polyplus), OptiMEM (Gibco) were used. PEI:DNA ratio was 2 and 0.6 μg DNA per million cells was used. Triple transfections were performed with RHM4-1 Rep Cap, Helper and Gaussia luciferase plasmids. Split Rep and Cap plasmids were used in a ratio of 1:4 (Rep:Cap). In some cases split Rep Cap plasmids and TIR1 or CMV-Tet were used in a ratio of 1:3:1 (Rep:Cap:TIR1 or CMV-Tet). 1.5 mM SAHA was added after the addition of DNA-PEI complexes. In some cases next day Shield1 or TMP or Auxin and/or Doxycycline was added. For Doxycycline treated samples another treatment of Dox was performed 24 hr later than first treatment. Cells harvested at 4,8,24 hr post-treatment and 44 hr or 68 hr or 72 hr post-transfection; centrifuged and washed with cold PBS. These cell pellets were kept at −80 freezer. 1 mL of cells harvested 44 hr or 68 hr or 72 hr post-transfection for qPCR.
Frozen harvested cells were thawed and sonicated. 300 μL sonicated cells were treated with Benzonase for 1 hour at 37° C. incubator on a rotator/shaker. Then DNaseI treatment was performed for 15 minutes. Reaction was stopped with stop reagent (0.2% SDS/5 mM EDTA/0.2M NaCl), heated at 95° C. for 10 minutes and centrifuged. […]

[8] = system: C-terminal Auxin Inducible Degron containing Rep; experiment: AAV titer (qPCR) with Auxin Inducible Degron tagged Rep; format: cell-based; conditions: auxin and TIR1 all present (Sample 4), FIG. 14B
Procedure: as §1, §2

[9] = Rep constructs with C-terminal tagged degron, FIG. 15

T1 sequence (P62942 other isoform, or with tags, fused parts or gaps F37V): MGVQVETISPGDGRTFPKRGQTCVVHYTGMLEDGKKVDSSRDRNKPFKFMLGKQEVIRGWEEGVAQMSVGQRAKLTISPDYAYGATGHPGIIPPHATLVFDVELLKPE

For C[C@H]1c2cccc(O)c2C(=O)C2=C(O)[C@]3(O)C(=O)C(C(N)=O)=C(O)[C@@H](N(C)C)[C@@H]3[C@@H](O)[C@@H]21 [Doxycycline, doxycycline], the “increase of AAV production from the basal levels” value ([1]; Doxycycline induction, FIG. 16B) was ~29 times.
CC[C@H](C(=O)N1CCCC[C@H]1C(=O)O[C@H](CCc1ccc(OC)c(OC)c1)c1cccc(OCCN2CCOCC2)c1)c1cc(OC)c(OC)c(OC)c1 [Shield1] was tested, and the AAV titer ([2]; N- and C-terminal degron constructs vs untreated controls, FIG. 12C) was “increases AAV titer”, the “AAV production at different doses” value [2, 9] was “more effective at 500 nM concentration” and the “Small and large Rep expression” value ([3]; C-degron Rep, 4, 8, 24 hour after Shield1 vs untreated, FIG. 12B) was “higher”. For the same compound, the “large Rep expression” value ([3]; N-degron Rep, 4, 8, 24 hours after Shield1 vs untreated, FIG. 12A) was “increases”, the “small Rep expression” value ([4]; Sample 1 vs Sample 2, FIG. 16A) was “upregulate” and the “large Rep expression” value ([4]; Sample 3 vs Sample 4 (with doxycycline), FIG. 16A) was “upregulate”. The “Large and small Rep expression” value ([4]; Samples 2, 4, 6, 8 vs 1, 3, 5, 7, FIG. 17A) was “increased”, the “large Rep expression” value ([4]; Shield1 added on top of doxycycline, Samples 4 and 8, FIG. 18B) was “increased further” and the rAAV production ([5]; Rep with C-terminally linked degron in the presence of both Cap and Shield1, FIG. 6) was “significantly increased”. For the same compound, the “rAAV production and transduction of the target cells” value ([5]; Shield1 addition, Rep-only plasmid C-terminal degron, HEK293, FIG. 4) was “rescued”, the transduction efficiency ([5]; of the wt Rep/Cap plasmid, Rep-only plasmid C-terminal degron with Shield1, FIG. 4) was 15-20% and the AAV titer ([1]; codon-modified Rep and small Rep under TRE3G and degron control, treated with Shield1 and Dox together, FIG. 20B) was “higher”.
COc1cc(Cc2cnc(N)nc2N)cc(OC)c1OC [TMP, Trimethoprim] was tested, and the “Small and large Rep expression” value ([6]; C-ecDegron Rep, 5 μM TMP, FIG. 13B) was “more”, the “Small and large Rep expression” value ([6]; C-terminal tagged ecDHFR degron, Samples 7 and 8, FIG. 14A) was “more” and the “large Rep expression” value ([6]; N-ecDegron Rep, 5 μM TMP, 24 hour time point, FIG. 13A) was “higher”. For the same compound, the AAV titer ([7]; C-terminal ecDHFR degron constructs, FIG. 13C) was “increases” and the AAV production ([7]; ecDHFR degron tagged Reps, Sample 8 vs Sample 7 (undetectable without TMP), FIG. 14B) was “can produce AAV”.
With O=C(O)Cc1c[nH]c2ccccc12 [auxin] the AAV production [8] was “undetectable”.
CC[C@H](C(=O)N1CCCC[C@H]1C(=O)O[C@H](CCc1ccc(OC)c(OC)c1)c1ccccc1OCC(=O)NCCCCCCOc1cccc2c1C(=O)N(C1CCC(=O)NC1=O)C2=O)c1cc(OC)c(OC)c(OC)c1 (some centres unmarked) [dTag13] was tested, and the “basal level of the AAV production” value [2, 9] was “did not decrease”.
